# Measured values: ChEMBL document CHEMBL3039007, “Structure-based identification of OATP1B1/3 inhibitors” (Mol Pharmacol, 2013)
# Residues, ends and D or L forms follow the SMILES beside them. *: point of attachment. For = O=C*
# Columns and labels:
# [1] = molecular target: T1, Solute carrier organic anion transporter family member 1B1 (Homo sapiens, UniProt Q9Y6L6); conditions: chinese hamster, cho, 10 µM
# T1 sequence (Q9Y6L6 whole entry): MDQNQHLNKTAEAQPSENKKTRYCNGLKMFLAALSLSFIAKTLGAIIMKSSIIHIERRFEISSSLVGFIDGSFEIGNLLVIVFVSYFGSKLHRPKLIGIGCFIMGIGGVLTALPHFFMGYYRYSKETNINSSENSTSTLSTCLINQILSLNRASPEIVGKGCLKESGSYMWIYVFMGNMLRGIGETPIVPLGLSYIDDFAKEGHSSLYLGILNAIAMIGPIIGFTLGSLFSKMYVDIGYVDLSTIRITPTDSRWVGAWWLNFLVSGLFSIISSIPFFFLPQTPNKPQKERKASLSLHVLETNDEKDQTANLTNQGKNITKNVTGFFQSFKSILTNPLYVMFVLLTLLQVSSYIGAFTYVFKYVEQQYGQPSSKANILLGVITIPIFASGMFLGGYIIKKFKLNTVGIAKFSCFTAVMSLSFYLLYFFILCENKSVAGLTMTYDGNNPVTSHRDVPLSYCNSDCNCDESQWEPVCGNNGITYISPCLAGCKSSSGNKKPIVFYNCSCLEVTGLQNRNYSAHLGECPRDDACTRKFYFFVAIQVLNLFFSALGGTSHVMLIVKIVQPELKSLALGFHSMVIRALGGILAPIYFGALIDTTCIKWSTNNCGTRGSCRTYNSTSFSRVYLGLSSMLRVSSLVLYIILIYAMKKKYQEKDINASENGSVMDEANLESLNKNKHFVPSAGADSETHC
# [2] = molecular target: T2, Solute carrier organic anion transporter family member 1B3 (Homo sapiens, UniProt Q9NPD5); conditions: chinese hamster, cho, 10 µM
# T2 sequence (Q9NPD5 whole entry): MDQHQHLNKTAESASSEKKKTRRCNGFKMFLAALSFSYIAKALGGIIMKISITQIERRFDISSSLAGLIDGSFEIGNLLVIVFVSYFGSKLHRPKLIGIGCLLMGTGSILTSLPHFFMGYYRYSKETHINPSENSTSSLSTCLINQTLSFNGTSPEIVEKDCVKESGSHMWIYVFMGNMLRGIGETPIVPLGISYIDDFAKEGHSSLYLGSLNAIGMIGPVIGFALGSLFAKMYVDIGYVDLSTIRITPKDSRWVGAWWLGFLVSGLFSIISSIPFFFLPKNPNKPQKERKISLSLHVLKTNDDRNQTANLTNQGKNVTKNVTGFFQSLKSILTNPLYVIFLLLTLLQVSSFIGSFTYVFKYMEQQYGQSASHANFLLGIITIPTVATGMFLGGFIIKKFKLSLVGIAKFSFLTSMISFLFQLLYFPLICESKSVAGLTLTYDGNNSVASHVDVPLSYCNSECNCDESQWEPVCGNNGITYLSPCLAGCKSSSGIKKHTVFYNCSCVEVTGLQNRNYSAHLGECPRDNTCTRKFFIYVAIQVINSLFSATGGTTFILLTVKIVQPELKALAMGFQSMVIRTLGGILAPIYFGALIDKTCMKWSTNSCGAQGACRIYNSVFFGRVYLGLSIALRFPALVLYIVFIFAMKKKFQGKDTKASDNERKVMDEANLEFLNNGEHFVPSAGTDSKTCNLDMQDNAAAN
Compound,residual activity [1] [%],residual activity [2] [%]
CCCOc1ccc2nc(NC(=O)OC)[nH]c2c1 [OXIBENDAZOLE],102.5,119.5
CNC(=O)Oc1cccc2c1OC(C)(C)C2 [CARBOFURAN],100.9,111.1
Oc1ccc2c(c1)O[C@H](c1ccc(O)c(O)c1)[C@@H](O)C2 [FISETINIDOL],74.52,95.23
c1ccc2c(c1)[nH]c1cnccc12 [NORHARMANE],95.1,87.66
C1N2CN3CN1CN(C2)C3 [METHENAMINE],93.33,72.89
Cc1cc(O)c(C=O)c(O)c1C(=O)O [HAEMATOMMIC ACID],54.98,81.5
C=C(C)[C@@H]1[C@H]2OC(=O)[C@@H]1[C@]1(O)C[C@H]3O[C@]34C(=O)O[C@H]2[C@]14C [PICROTOXININ],102.7,101.9
Cl.FC(F)(F)c1cccc(N2CCNCC2)c1 [N- (3-TRIFLUOROMETHYLPHENYL)PIPERAZINE HYDROCHLORIDE (TFMPP)],106.1,80.23
CC1(C)C(C(Cl)Cl)C2(Cl)C(Cl)C(Cl)C1(Cl)C2(Cl)Cl (stereo not given) [TOXAPHENE],111.3,109.5
COc1ccc2cc(CCC(C)=O)ccc2c1 [NABUMETONE],203,110.7
CC(Cc1cccc(C(F)(F)F)c1)NCCOC(=O)c1ccccc1.Cl (stereo not given) [BENFLUOREX HYDROCHLORIDE],93.54,87.71
Nc1nc(N)c2nc(-c3ccccc3)c(N)nc2n1,78.63,69.61
COc1cc2c(cc1-c1cc3cc4ccoc4cc3oc1=O)OCO2 [PACHYRRIZINE],139.6,121.4
CN1CCN(CC(=O)N2c3ccccc3C(=O)Nc3cccnc32)CC1.Cl.Cl [PIRENZEPINE HYDROCHLORIDE],103.8,100.6
CN(C)CCOC(=O)C(c1ccccc1)C1(O)CCCC1.Cl (stereo not given) [CYCLOPENTOLATE HYDROCHLORIDE],87.23,100.2
CN[C@H](CC(C)C)C(=O)N[C@H]1C(=O)N[C@@H](CC(N)=O)C(=O)N[C@H]2C(=O)N[C@H]3C(=O)N[C@H](C(=O)N[C@H](C(=O)O)c4cc(O)cc(O)c4-c4cc3ccc4O)[C@H](O)c3ccc(c(Cl)c3)Oc3cc2cc(c3O[C@@H]2O[C@H](CO)[C@@H](O)[C@H](O)[C@H]2O[C@H]2C[C@](C)(N)[C@H](O)[C@H](C)O2)Oc2ccc(cc2Cl)[C@H]1O.Cl [VANCOMYCIN HYDROCHLORIDE],99.99,103.2
COc1cc2ccc(=O)oc2c(OC)c1OC [FRAXIDIN METHYL ETHER],92.39,92.79
CC(=O)O[C@@H]1C[C@H]2C(C)(C)C(=O)[C@H]3O[C@H]3[C@]2(C)[C@H]2CC[C@@]3(C)[C@H](c4ccoc4)OC(=O)[C@H]4O[C@]43[C@@]21C,58.52,88.38
CC(=O)Oc1cc(OC(C)=O)c2c(c1)O[C@H](c1ccc(OC(C)=O)c(OC(C)=O)c1)[C@H](OC(C)=O)C2 [EPICATECHIN PENTAACETATE],74.79,76.08
Cl.NC(CO)C(=O)NNCc1ccc(O)c(O)c1O (stereo not given) [BENSERAZIDE HYDROCHLORIDE],93.51,93.94
CN(C)CCOC(c1ccc(Cl)cc1)c1ccccn1.O=C(O)/C=C\C(=O)O (stereo not given) [CARBINOXAMINE MALEATE],85.11,96.23
CC(C)(OC(=O)c1ccccc1)[C@@H]1Cc2cc3ccc(=O)oc3cc2O1 [FELAMIDIN],115.2,168.9
O=C1c2ccccc2C(=O)c2ccccc21 [ANTHRAQUINONE],96.98,78.8

Compound,residual activity [1] [%],residual activity [2] [%]
COc1ccc(C(=O)O)cc1OC [VERATRIC ACID],111.3,106.9
"CC(C)CC(NC(=O)OCC1c2ccccc2-c2ccccc21)C(=O)O (single isomer, unassigned) [N- (9-FLUORENYLMETHOXYCARBONYL)-L-LEUCINE]",32.48,48.34
COc1cc2c3cc1Oc1cc(ccc1O)C[C@@H]1c4c(cc(OC)c(O)c4Oc4ccc(cc4)C[C@@H]3N(C)CC2)CC[N+]1(C)C.[Cl-],99.28,110.3
S=P(N1CC1)(N1CC1)N1CC1 [THIOTEPA],67.53,70.43
O=S1OCC2C(CO1)C1(Cl)C(Cl)=C(Cl)C2(Cl)C1(Cl)Cl (stereo not given) [ENDOSULFAN],111.6,117.8
COc1c(O)cccc1O [2-METHOXYRESORCINOL],95.14,98.72
CC(=O)O[C@H]1C[C@@H](OC(C)=O)C(C)(C)[C@@H]2C[C@@H](OC(C)=O)[C@]3(C)[C@H](CC[C@]4(C)[C@H](c5ccoc5)C(=O)[C@H]5O[C@@]534)[C@@]12C,26.02,57.61
C=CC(C1=CC(=O)C=CC1=O)c1ccccc1 (stereo not given) [DALBERGIONE],72.19,269.8
COc1c(-c2coc3cc4c(cc3c2=O)CC(OC(C)=O)C(C)(C)O4)ccc2c1C=CC(C)(C)O2 (stereo not given) [MUNDULONE ACETATE],71.78,87.47
Oc1cc(O)cc(/C=C/c2ccccc2)c1 [PINOSYLVIN],133.5,114.6
O=C1CN(/N=C/c2ccc([N+](=O)[O-])o2)C(=O)N1 [NITROFURANTOIN],97.62,100.8
CC(C)=CCC[C@]1(C)C=Cc2c(O)c3c(c(CC=C(C)C)c2C1)O[C@]12C(=C[C@@H]4C[C@H]1C(C)(C)O[C@@]2(C/C=C(/C)C(N)=O)C4=O)C3=O,57.81,70.77
CCOC(=O)[C@H](CCc1ccccc1)N[C@@H](C)C(=O)N1CCC[C@H]1C(=O)O.O=C(O)/C=C\C(=O)O [ENALAPRIL MALEATE],190.1,110.9
C=C(C)[C@H]1CN[C@H](C(=O)O)[C@H]1CC(=O)O [KAINIC ACID],106.3,103.1
CCn1cc(C(=O)O)c(=O)c2cc(F)c(N3CCNCC3)cc21 [NORFLOXACIN],97.94,99.94
CC1=C2C(=CO[C@H](C)[C@H]2C)C(O)=C(C(=O)O)C1=O [CITRININ],34.39,67.29
CSCC[C@H](NC=O)C(=O)N[C@@H](Cc1ccccc1)C(=O)O (For-Met-Phe-OH),38.77,104.4
O=C(O)CCC(=O)c1ccc(-c2ccccc2)cc1 [FENBUFEN],172.9,86.33
O=C([O-])c1ccccc1O.[Na+] [SODIUM SALICYLATE],55.28,80.83
CC(=O)O[C@H]1CC[C@]2(C)C3=C(CC[C@H]2C1(C)C)[C@]1(C)CC[C@H]([C@H](C)CCC=C(C)C)[C@@]1(C)CC3,54.67,93.79
C#C[C@]1(O)CC[C@H]2[C@@H]3CCc4cc(O)ccc4[C@H]3CC[C@@]21C [ETHINYL ESTRADIOL],13.12,61.16
NC(=O)c1ccc[n+]([C@@H]2O[C@H](COP(=O)([O-])OP(=O)(O)OC[C@H]3O[C@@H](n4cnc5c(N)ncnc54)[C@H](O)[C@@H]3O)[C@@H](O)[C@H]2O)c1 [NADIDE],99.44,115.4
